Test results taken from paper PMC7790953 (ACS chemical neuroscience, 2020).
“Also recorded” adds a separate entry of the source.

What was measured:
h9B1 = format: binding; details: for Kd: read-out: Kd as printed in text (h9B1); for Ki: read-out: Ki (h9B1), pH 7.4
9B1 [1] = format: binding, mouse; details: for Kd: read-out: Kd as printed in text (9B1); for Ki: read-out: Ki (9B1), pH 7.4
9B1 [2] = details: estimated in original report; cited from earlier work
Ab15 = details: ref SI Table S2; cited from earlier work

Compound | Kd (h9B1) [nM] | Ki (h9B1) [nM] | Kd (9B1 [1]) [nM] | Ki (9B1 [1]) [nM] | Binding constant of 9B1 with morphine (9B1 [2]) | Binding with h9B1 in initial screening (h9B1) | Binding with 9B1 in initial screening (9B1 [1]) | IC50 (Ab15) [nM]
CC(=O)O[C@H]1C=C[C@H]2[C@H]3Cc4ccc(O)c5c4[C@@]2(CCN3C)[C@H]1O5 [6-MAM, 6-monoacetylmorphine] | 11.9 | 11.9 | 4.8 | 4.8 | – | – | – | –
CN1CC[C@]23c4c5ccc(O)c4O[C@H]2[C@@H](O)C=C[C@H]3[C@H]1C5 [morphine] | – | – | – | – | ~ 10^9 M^−1 | – | – | –
buprenorphine | – | – | – | – | – | did not show significant binding affinities; also recorded: without significant binding | did not show significant binding affinities; also recorded: without significant binding | –
COc1ccc2c3c1O[C@H]1C(=O)CC[C@@]4(O)[C@@H](C2)N(C)CC[C@]314 [oxycodone] | – | 6910 | – | 2670 | – | – | – | –
COc1ccc2c3c1O[C@H]1C(=O)CC[C@H]4[C@@H](C2)N(C)CC[C@]314 [hydrocodone] | 39.3 | 39.3 | 8.2 | 8.2 | – | – | – | –
O=C1CC[C@@]2(O)[C@H]3Cc4ccc(O)c5c4[C@@]2(CCN3CC2CC2)[C@H]1O5 [naltrexone] | – | > 10000 | – | > 10000 | – | did not show significant binding affinities; also recorded: without significant binding | did not show significant binding affinities; also recorded: without significant binding | 310
CC(=O)Oc1ccc2c3c1O[C@H]1[C@@H](OC(C)=O)C=C[C@H]4[C@@H](C2)N(C)CC[C@@]341 [heroin] | 11.8 | 11.8 | 1.3 | 1.3 | – | – | – | –
C=CCN1CC[C@]23c4c5ccc(O)c4O[C@H]2C(=O)CC[C@@]3(O)[C@H]1C5 [naloxone] | – | – | – | – | – | did not show significant binding affinities; also recorded: without significant binding | did not show significant binding affinities; also recorded: without significant binding | –
